“And” between values parts separate entries of the source, which are not always exact repeats. Equal values may be shown once. Marks after values point to notes of the source that are not given here.
What was measured:
[1] = system: guinea pig small intestine myenteric plexus longitudinal muscle; test: Ex vivo smooth muscle contractility, electrical field stimulation response of isolated guinea pig small intestine; conditions: for EC50: Cavia porcellus, isolated guinea pig ileum, concentration as free base of opioid, read-out: EC50, opioid effect on electrical field stimulation response
[2] = Bioavailability of oxycodone, codeine and dihydrocodeine from their succinyl valine ester prodrugs in the dog (oral gavage, two-way crossover); conditions: dogs; for T>50%Cmax of oxycodone: 1 mg free base equivalents oxycodone/kg; for T>50%Cmax of dihydrocodeine: 1 mg free base equivalents dihydrocodeine/kg
Experimental: The characteristics of the test animals are set out in Table 10, below.
(§1) Blood samples were taken at various times after administration and submitted to analysis for the parent drug and pro-drug using a validated LC-MS-MS assay. Pharmacokinetic parameters derived from the plasma analytical data were determined using Win Nonlin.

[3] = system: gut motility in the rat; test: Charcoal propulsion test of GI motility in the rat; assay type: in vivo; conditions: oral; for delay of the passage of the charcoal meal (gut motility): 30 mg/kg or equimolar dose
Experimental: Test treatments were administered to groups of up to 10 rats fasted overnight prior to the test.
Test treatments were administered orally 60 minutes prior to a 2.0 mL oral dose of a 10% suspension of charcoal in 5% gum arabic. Thirty minutes after dosing with charcoal, the rats were sacrificed and the entire gastro-intestinal tract quickly and carefully removed. The distance the charcoal meal had traveled from the pyloric sphincter toward the caecum was measured and expressed as a percentage of both the total gut length and the length of the small intestine.

[4] = Comparative oral bioavailability of oxycodone from various dicarboxylate bridged amino acid prodrugs in dogs (nine-way crossover); assay type: in vivo, dog; conditions: 1 mg/kg oxycodone free base, mean (±sd)
[5] = In vitro stability of dicarboxylate amino acid ester prodrugs in simulated gastric and intestinal juice, distilled water and pH 10 buffer (HPLC)
[6] = Comparative pharmacokinetics of oxycodone in the cynomolgus monkey after oral administration
[7] = Comparative pharmacokinetics of oxycodone after oral administration to female Sprague Dawley rats; conditions: 10 mg oxycodone free base equivalents/kg; for T>50%Cmax of oxycodone: oral
[8] = Systemic availability of oxycodone after intranasal insufflation to dogs; conditions: nominal […] equivalents; for half-life: t½ of intact prodrug
[9] = Systemic availability of hydrocodone in dogs after oral administration of hydrocodone or hydrocodone succinyl valine enol ester; conditions: 1 mg hydrocodone free base equivalents/kg; for half-life: t½ of hydrocodone
Experimental: Test substances i.e. hydrocodone or hydrocodone succinyl valine enol ester were administered by oral gavage to a group of five male dogs in a two-way crossover design The characteristics of the test animals are set out in Table 26, below.
as §1

[10] = in vivo; cited from earlier work
[11] = Plasma pharmacokinetics of meptazinol dicarboxylate linked prodrugs after oral gavage to dogs; assay type: in vivo, dog; conditions: dog, plasma, 1 mg meptazinol base equivalents/kg body weight, oral, read-out: expected Cmax of meptazinol after giving the drug itself
[12] = male cynomolgus monkeys, oral prodrug, 1 mg oxycodone free base equivalents/kg, individual monkeys 1-5
[13] = oral prodrug, individual rats, listed as Oxycodone succinyl valine enol ester
[14] = oral gavage, individual dogs 1-5
[15] = male dogs, oral, individual dogs 1M-5M

With COc1ccc2c3c1O[C@H]1[C@@H](OC(=O)CCC(=O)NC(C(=O)O)C(C)C)C=CC4[C@@H](C2)N(C)CC[C@@]341 (stereo in doubt) [Codeine-[succinyl-(S)-valine] ester, codeine-[succinyl-(S)-valine]ester] the EC50 [1] was 6.3 µM, the “reduction in potency compared to parent drug” value ([1]; guinea pig ileal smooth muscle) was 50% and the “T>50%Cmax of codeine” value ([2]; oral gavage, 1 mg free base equivalents codeine/kg, median (n=5)) was 2 h. For the same compound, the “delay of the passage of the charcoal meal (gut motility)” value (from here on “delay”) [3] was “less than half the amount of codeine”.
In the case of COc1ccc2c3c1O[C@H]1C(OC(=O)CCC(=O)NC(C(=O)O)C(C)C)=CC[C@@]4(O)[C@@H](C2)N(C)CC[C@]314 (stereo in doubt) [oxycodone-[succinyl-(S)-valine] enol ester], the “T50% Cmax of oxycodone” value [4] is reported as 1.6 (±0.3) h, the “Simulated gastric fluid (pH 1.1): % remaining after 2 h/37° C.” value ([5]; pH 1.1, 2 h, 37° C.) is reported as 98% and the “Distilled water (pH 5.9): % remaining after 2 h/20° C.” value ([5]; pH 5.9, 2 h, 20° C.) is reported as 100%. For the same compound, the “Simulated intestinal fluid (pH 6.8): % remaining after 2 h/37° C.” value ([5]; pH 6.8, 2 h, 37° C.) was 85%, the “pH 10.0 buffer: % remaining after 2 h/20° C.” value ([5]; pH 10.0, 2 h, 20° C.) was 64% and the “AUCt of intact prodrug” value [6, 12] was 0.76 ng·h/mL and 1.70 ng·h/mL and 0.39 ng·h/mL and 0.32 ng·h/mL and 0.71 ng·h/mL. For the same compound, the “Cmax of intact prodrug” value [6, 12] was 1.29 ng/mL and 2.92 ng/mL and 0.57 ng/mL and 0.42 ng/mL and 1.02 ng/mL, the “T>50%Cmax of oxycodone” value ([6]; male cynomolgus monkeys, oral, 1 mg oxycodone free base equivalents/kg, individual monkeys 1-5) was 1.54 h and 1.63 h and 3.45 h and 4.43 h and 1.38 h and the “T>50%Cmax of oxycodone” value ([6]; male cynomolgus monkeys, oral, 1 mg oxycodone free base equivalents/kg, mean (n=5)) was 2.49 h. For the same compound, the “T>50%Cmax of oxycodone” value ([6]; male cynomolgus monkeys, oral, 1 mg oxycodone free base equivalents/kg, mean (n=5), listed as oxycodone succinyl valine ester) was 2.5 h, the AUC(0-t) ([6]; male, cynomolgus monkey, plasma, po, 1 mg oxycodone base equivalents/kg, AUCt of intact prodrug, male cynomolgus monkeys, oral prodrug, 1 mg oxycodone free base equivalents/kg, mean (n=5)) was 0.78 ng·h/mL and the Cmax ([6]; male, cynomolgus monkey, plasma, po, 1 mg oxycodone base equivalents/kg, Cmax of intact prodrug, male cynomolgus monkeys, oral prodrug, 1 mg oxycodone free base equivalents/kg, mean (n=5)) was 1.24 ng/mL. For the same compound, the “prodrug Cmax as % of Cmax of the active drug” value ([6]; monkeys, oral prodrug) was roughly 7%, the “AUC of oxycodone” value ([6]; monkeys, oral, 1 mg oxycodone base equivalents/kg) was 42.3 ng/h/mL and the AUC(0-t) ([7]; female, Sprague Dawley, rat, plasma, po, AUCt of intact prodrug, oral prodrug, mean (BLQ taken as zero)) was 1.24 ng·h/mL. For the same compound, the Cmax ([7]; female, Sprague Dawley, rat, plasma, po, Cmax of intact prodrug, oral prodrug, mean (BLQ taken as zero)) was 2.35 ng/mL, the Tmax ([7]; female, Sprague Dawley, rat, plasma, po, Tmax of intact prodrug, oral prodrug, median) was 22.5 min and the “AUCt of intact prodrug” value [7, 13] was 3.53 ng · h/mL and 2.55 ng · h/mL and BLQ (2×) and 0.131 ng · h/mL. The “Cmax of intact prodrug” value [7, 13] was 6.77 ng/mL and 2.00 ng/mL and BLQ and 1.93 ng/mL and 1.05 ng/mL, the “Tmax of intact prodrug” value [7, 13] was 1.5 h and the “T>50%Cmax of oxycodone” value ([7]; individual rats, listed as Oxycodone succinyl valine enol ester) was 11.8 h (2×) and 3.5 h and 3.75 h and 2 h. For the same compound, the “T>50%Cmax of oxycodone” value ([7]; median, listed as Oxycodone succinyl valine enol ester) was 3.75^a h, the “T>50%Cmax of oxycodone” value ([7]; median, listed as oxycodone succinyl valine ester) was 3.75 h and the EC50 [1] was 2 µM. The “reduction in the opioid effects compared to oxycodone itself” value ([1]; guinea pig ileal smooth muscle) was 10 fold, the “T>50%Cmax of oxycodone” value [2, 14] was 1.5 h (3×) and 2.5 h (2×) and the “T>50%Cmax of oxycodone” value ([2]; oral gavage, median (n=5)) was 1.5^a h. The “period for which plasma concentrations were maintained above 50% of Cmax, compared to the drug itself” value ([2]; oral, oxycodone in plasma) was “three times longer”, the “% change from vehicle-treated animals, small intestine” value (“% change … small intestine” below) ([3]; 10 mg/kg) was −12.1% and the “% change from vehicle-treated animals, total gut length” value (from here on “% change … total gut length”) ([3]; 10 mg/kg) was −11.2%. For the same compound, the “% change … small intestine” value ([3]; 30 mg/kg) was −15.8%, the “% change … total gut length” value ([3]; 30 mg/kg) was −15.6% and the “delay” value [3] was roughly 16%. For the same compound, the “% change … small intestine” value ([3]; 100 mg/kg) was −35.4%, the “% change … total gut length” value ([3]; 100 mg/kg) was −35.0% and the AUC ([8]; male, beagle, dog, plasma, other: intranasal insufflation, 0.25 mg oxycodone free base equivalents/kg, AUC of intact prodrug, mean) was 10.3 ng·h/mL. The AUC(0-t) ([8]; male, beagle, dog, plasma, other: intranasal insufflation, 0.25 mg oxycodone free base equivalents/kg, AUCt of intact prodrug, mean) was 5.93 ng·h/mL, the Cmax ([8]; male, beagle, dog, plasma, other: intranasal insufflation, 0.25 mg oxycodone free base equivalents/kg, Cmax of intact prodrug, mean) was 4.87 ng/mL and the Tmax ([8]; male, beagle, dog, plasma, other: intranasal insufflation, 0.25 mg oxycodone free base equivalents/kg, Tmax of intact prodrug, median) was 15 min. The half-life ([8]; male, beagle, dog, plasma, other: intranasal insufflation, 0.25 mg oxycodone free base equivalents/kg, calculated as ln2/mean k) was 45 min, the half-life ([8]; male, beagle, dog, plasma, other: intranasal insufflation, 0.25 mg oxycodone free base equivalents/kg, individual dogs) was 51 min and the “Tmax of intact prodrug” value ([8]; individual dogs) was 1.00 h.
With COc1ccc2c3c1O[C@H]1[C@@H](O)CC[C@H]4[C@@H](C2)N(C)CC[C@@]341 [Dihydrocodeine, dihydrocodeine, reference compound] the EC50 [1] was 5 µM, the “T>50%Cmax of dihydrocodeine” value [2, 14] was 0.5 h and the “T>50%Cmax of dihydrocodeine” value ([2]; oral gavage, median (n=5)) was 0.5^a h. For the same compound, the “T>50%Cmax of dihydrocodeine” value ([2]; oral gavage, median (n=5), listed as dihydrocodeine) was 0.5 h and the “delay” value [3] was roughly 30%.
With COc1ccc2c3c1O[C@H]1C(=O)CC[C@H]4[C@@H](C2)N(C)CC[C@]314 [Hydrocodone, hydrocodone] the AUC of hydrocodone [9, 15] was 155 ng·h/mL and 111 ng·h/mL and 91.7 ng·h/mL and 71.0 ng·h/mL and 95.3 ng·h/mL, the AUCt of hydrocodone [9, 15] was 154 ng·h/mL and 107 ng·h/mL and 89.2 ng·h/mL and 69.7 ng·h/mL and 94.1 ng·h/mL and the Cmax of hydrocodone [9, 15] was 119 ng/mL and 76.8 ng/mL and 57.8 ng/mL and 53.3 ng/mL and 71.1 ng/mL. For the same compound, the “T>50%Cmax of hydrocodone” value [9, 15] was 0.75 h (3×) and 1.25 h (2×), the t½ of hydrocodone [9, 15] was 1.58 h and 1.66 h (2×) and 1.46 h and the “T>50%Cmax of hydrocodone” value ([9]; male dogs, oral, mean) was 0.95 h. For the same compound, the Tmax of hydrocodone ([9]; male dogs, oral, median) was 0.5* h, the Tmax ([9]; male, Beagle, dog, plasma, po) was 30 min and the AUC ([9]; male, Beagle, dog, plasma, po, AUC of hydrocodone, male dogs, mean) was 105 ng·h/mL. The AUC(0-t) ([9]; male, Beagle, dog, plasma, po, AUCt of hydrocodone, male dogs, mean) was 103 ng·h/mL, the Cmax ([9]; male, Beagle, dog, plasma, po, Cmax of hydrocodone, male dogs, mean (n=5)) was 75.6 ng/mL and the half-life ([9]; male, Beagle, dog, plasma, po, male dogs, individual dogs 1M-5M) was 78.6 min. For the same compound, the half-life ([9]; male, Beagle, dog, plasma, po, male dogs, mean) was 92.4 min.
For CCC1(c2cccc(O)c2)CCCCN(C)C1 (stereo not drawn) [Meptazinol, meptazinol, reference compound], the oral bioavailability [10] is given as less than 10% and the Cmax [11] is given as 2 to 5 ng/mL.
